Assay results reported in patent US20110250686A1 (CELLARTIS AB, priority 2006, published 2011).

Tested on: hepatocyte-like cells
Details: against VitroHES reference protocol

Compound: C[C@@H]1C[C@H]2[C@@H]3CCC4=CC(=O)C=C[C@]4(C)[C@@]3(F)[C@@H](O)C[C@]2(C)[C@@]1(O)C(=O)CO [Dexamethasone]
- morphology / appearance of hepatocyte-like cells: improved the appearance of the HCLC
